The assay has as its target full length NS3/4a (Hepatitis C virus genotype 1b (isolate BK) (HCV), UniProt P26663). As to the kind of experiment: NS3 Protease Assay (Example A), FRET-based. The class given is biochemical. How it is done: The HCV NS3 protease functions have been extensively studied and are considered as potential targets for antiviral therapy: see for example the many references listed in the introductory section of this application. Therefore, the activity of the compounds of the invention as anti-HCV agents was assessed using a full length HCV NS3 protease.
The protease activity of the full length NS3/4a was measured using a FRET-based assay utilizing a peptide substrate derived from the NS4A/B cleavage site (Anaspec) and labelled at one end with a quencher (QXL520) and at the other with a fluorophore (5-FAMsp). NS3/4a (produced in-house by literature methods) was incubated with test compounds and peptide substrate in 50 mM Tris pH8, 20 mM DTT, 1% CHAPS, 10% glycerol and 5% DMSO. The reaction was followed by monitoring the change in fluorescence on a Molecular Devices Gemini plate reader for 30 minutes at room temperature. Initial rates were calculated from the progress curves using SoftMax Pro (Molecular Devices). IC50 values were then calculated from replicate curves using Prism GraphPad software.

Where [1] appears, read: HCV NS3 protease assay, full length NS3/4a, read-out: Assay A IC50 (μM) average.
Setting [2] is: read-out: IC50 against the protease activity of the full length NS3/4a.

Read-outs that look alike come from different tables or passages of the source.

In general, inhibition refers to the percentage by which the read-out fell short of the control. Read a high inhibition as strong suppression.

Sequence of full length NS3/4a (P26663 1027-1657): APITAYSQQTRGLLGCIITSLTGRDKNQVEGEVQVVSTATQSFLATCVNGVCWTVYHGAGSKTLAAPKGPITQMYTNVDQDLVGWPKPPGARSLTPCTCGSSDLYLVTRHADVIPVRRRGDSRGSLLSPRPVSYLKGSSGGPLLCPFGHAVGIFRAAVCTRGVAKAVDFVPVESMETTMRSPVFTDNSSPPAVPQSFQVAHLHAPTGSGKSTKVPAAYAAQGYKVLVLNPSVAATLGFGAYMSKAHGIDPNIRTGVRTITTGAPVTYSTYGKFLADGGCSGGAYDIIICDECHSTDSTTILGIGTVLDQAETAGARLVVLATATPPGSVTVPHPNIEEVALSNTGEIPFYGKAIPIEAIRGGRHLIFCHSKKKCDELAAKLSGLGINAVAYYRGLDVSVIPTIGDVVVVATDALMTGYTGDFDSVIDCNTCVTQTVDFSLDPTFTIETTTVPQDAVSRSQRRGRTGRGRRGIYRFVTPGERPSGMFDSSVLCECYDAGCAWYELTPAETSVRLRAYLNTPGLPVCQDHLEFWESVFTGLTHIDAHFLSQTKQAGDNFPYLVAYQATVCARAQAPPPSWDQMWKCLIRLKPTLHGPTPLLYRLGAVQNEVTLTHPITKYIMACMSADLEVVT

On to `CC[C@@H](N[C@H](C)CC(N)=O)c1ccc(OC)c(C(=O)c2ccc(N)c(C)c2)c1F` [Example 274, (3R)-3-{[(1R)-1-{3-[(4-amino-3-methylphenyl)carbonyl]-2-fluoro-4-methoxyphenyl}propyl]amino}butanamide], for which, under setting [1], the IC50 was 0.56 µM.
On to `C[C@H](CC(N)=O)N[C@@H](c1ccc(Cl)c(C(=O)c2ccncc2)c1F)C1CC1` [Example 130, (3R)-3-{[(R)-{4-chloro-2-fluoro-3-[(pyridin-4-yl)carbonyl]phenyl}-(cyclopropyl)methyl]-amino}butanamide], for which the IC50 is, setting by setting: under setting [1], 1.5 µM; under setting [2], 1 to 5 µM.
As for `CC[C@H](N)c1ccc(Cl)c(C(=O)c2ccc(Cl)nc2)c1F` [Example 30, (1S)-1-{4-chloro-3-[(6-chloropyridin-3-yl)carbonyl]-2-fluorophenyl}propan-1-amine], the IC50 runs as follows: under setting [1], 0.21 µM; under setting [2], below 1 µM.
On to `Nc1ccc(C(=O)c2c(Cl)ccc([C@H](N)C3CC3)c2F)nc1` [Example 61, 6-({3-[(R)-amino(cyclopropyl)methyl]-6-chloro-2-fluorophenyl}carbonyl)pyridin-3-amine], for which the IC50 was 1.2 µM under setting [1] and 1 to 5 µM under setting [2].
On to `CC[C@@H](N[C@H](C)CC(N)=O)c1ccc(Cl)c(C(=O)c2ccc(N)cn2)c1F` [Example 156, (3R)-3-{[(1R)-1-{3-[(5-aminopyridin-2-yl)carbonyl]-4-chloro-2-fluorophenyl}propyl]-amino}butanamide], for which the IC50 reads like this: under setting [1], 2 µM; under setting [2], 1 to 5 µM.
In the case of `CC[C@@H](N[C@@H](CC(N)=O)C(C)C)c1ccc(Cl)c(C(=O)c2ccc(N)nc2)c1F` [Example 218, (3S)-3-{[(1R)-1-{3-[(6-aminopyridin-3-yl)carbonyl]-4-chloro-2-fluorophenyl}propyl]amino}-4-methylpentanamide], the inhibition at 1 µM (@ 1 uM) came out at 42%. Besides, the IC50 under setting [2] was 1 to 5 µM.
`CC[C@H](N)c1ccc(Cl)c(C(=O)c2ccccc2)c1F` [Example 6, (1S)-1-(3-benzoyl-4-chloro-2-fluorophenyl)propan-1-amine] yielded an inhibition at 0.3 µM of 80%. Besides, the IC50 under setting [2] was below 1 µM.
With `CC[C@@H](N[C@H](C)CC(N)=O)c1ccc(Cl)c(C(=O)c2cc(C)c(N)cn2)c1F` [Example 246, (3R)-3-{[(1R)-1-{3-[(5-amino-4-methylpyridin-2-yl)carbonyl]-4-chloro-2-fluorophenyl}propyl]amino} butanamide], the IC50 is 3.9 µM under setting [1] and 1 to 5 µM under setting [2].
`CC[C@@H](N[C@H](C)CC(N)=O)c1ccc(OC)c(C(=O)c2ccc(F)cc2)c1F` [Example 199, (3R)-3-{[(1R)-1-{2-fluoro-3-[(4-fluorophenyl)carbonyl]-4-methoxyphenyl}propyl]amino}butanamide] had an inhibition at 100 µM (@ 100 uM) of 32%.
Take `C[C@H](CC(N)=O)N[C@@H](c1ccc(Cl)c(C(=O)c2ccc(CO)cc2)c1F)C1CC1` [Example 264, (3R)-3-{[(R)-(4-chloro-2-fluoro-3-{[4-(hydroxymethyl)phenyl]carbonyl}phenyl)(cyclopropyl)methyl]amino}butanamide]: the IC50 under setting [1] came out at 0.61 µM.
In the case of `CC[C@@H](NCC(C)(C)C(N)=O)c1ccc(Cl)c(C(=O)c2cccnc2)c1F` [Example 172, 3-{(R)-1-[4-Chloro-2-fluoro-3-(pyridine-3-carbonyl)-phenyl]-propylamino}-2,2-dimethyl-propionamide], the IC50 is 1.6 µM under setting [1] and 1 to 5 µM under setting [2].
Regarding `CC[C@@H](N[C@@H](C)CC(N)=O)c1ccc(Cl)c(C(=O)c2cnc(N)cn2)c1F` [Example 138, (3S)-3-{[(1R)-1-{3-[(5-aminopyrazin-2-yl)carbonyl]-4-chloro-2-fluorophenyl}propyl]-amino}butanamide], the IC50 was 0.31 µM under setting [1] and below 1 µM under setting [2].
For the compound `C[C@@H](CC(N)=O)N[C@@H](c1ccc(Cl)c(C(=O)c2cnc(N)cn2)c1F)C1CC1` [Example 194, (3S)-3-{[(R)-{3-[(5-aminopyrazin-2-yl)carbonyl]-4-chloro-2-fluorophenyl}(cyclo-propyl)methyl]amino}-butanamide], the inhibition at 0.3 µM was 28%.
With `CC[C@@H](NC(C)C)c1ccc(Cl)c(C(=O)c2cccnc2)c1F` [Example 285, [(1R)-1-{4-chloro-2-fluoro-3-[(pyridin-3-yl)carbonyl]phenyl}propyl] (propan-2-yl)amine], the IC50 runs as follows: under setting [1], 2 µM; under setting [2], 1 to 5 µM.
For the compound `CC[C@@H](N)c1ccc(Cl)c(C(=O)c2ccc(F)c(F)c2)c1F` [Example 13, (1R)-1-{4-chloro-3-[(3,4-difluorophenyl)carbonyl]-2-fluorophenyl}propan-1-amine], the IC50 runs as follows: under setting [1], 0.83 µM; under setting [2], below 1 µM.
On to `CC[C@@H](N)c1ccc(Cl)c(C(=O)c2ccccn2)c1F` [Example 14, (1R)-1-{4-chloro-2-fluoro-3-[(pyridin-2-yl)carbonyl]phenyl}propan-1-amine], for which the IC50 was 2.5 µM under setting [1] and 1 to 5 µM under setting [2].
Regarding `CC[C@@H](N[C@H](C)CC(N)=O)c1ccc(Cl)c(C(=O)c2ccccc2)c1F` [Example 114, (3R)-3-{[(1R)-1-(3-benzoyl-4-chloro-2-fluorophenyl)-(2,2,3,3,3-D)propyl]amino}-butanamide], the IC50 under setting [1] was found to be 0.75 µM.
`C[C@H](CC(N)=O)N[C@@H](c1ccc(Cl)c(C(=O)c2ccc(C#N)cc2)c1F)C1CC1` [Example 128, (3R)-3-{[(R)-{4-chloro-3-[(4-cyanophenyl)-carbonyl]-2-fluorophenyl}(cyclo-propyl)methyl]amino}-butanamide]: the IC50 reads like this: under setting [1], 0.28 µM; under setting [2], below 1 µM.
As to `COc1ccc([C@H](N[C@H](C)CC(N)=O)C2CC2)c(F)c1C(=O)c1ccc(F)cc1` [Example 209, (3R)-3-{[(R)-cyclopropyl({2-fluoro-3-[(4-fluorophenyl)carbonyl]-4-methoxyphenyl})methyl]amino}butanamide], the IC50 under setting [1] turned out to be 2.7 µM and the IC50 under setting [2] lay within 1 to 5 µM.
With `C[C@H](CC(N)=O)N[C@@H](c1ccc(Cl)c(C(=O)c2ccc3c(c2)OCC(=O)N3)c1F)C1CC1` [Example 271, (3R)-3-{[(R)-{4-chloro-2-fluoro-3-[(3-oxo-3,4-dihydro-2H-1,4-benzoxazin-7-yl)carbonyl]phenyl}(cyclopropyl)methyl]-amino}butanamide], the IC50 runs as follows: under setting [1], 1.1 µM; under setting [2], 1 to 5 µM.
As to `CC[C@@H](N[C@H](C)CC(=O)NCCN)c1ccc(Cl)c(C(=O)c2ccc(N)nc2)c1F` [Example 241, (3R)-N-(2-aminoethyl)-3-{[(1R)-1-{3-[(6-aminopyridin-3-yl)carbonyl]-4-chloro-2-fluorophenyl}propyl]amino}-butanamide], the IC50 under setting [1] was found to be 0.036 µM.
With `CCC(NC[C@H](C)C(N)=O)c1ccc(Cl)c(C(=O)c2cccnc2)c1F` (stereo in doubt) [Example 175, (2S)-3-{[(1R)-1-{4-chloro-2-fluoro-3-[(pyridin-3-yl)carbonyl]phenyl}-propyl]amino}-2-methylpropanamide], the IC50 runs as follows: under setting [1], 1.1 µM; under setting [2], 1 to 5 µM.
`CC[C@@H](N[C@@H](C)CC(N)=O)c1ccc(Cl)c(C(=O)c2cccc(CO)c2)c1F` [Example 188, (3S)-3-{[(1R)-1-(4-chloro-2-fluoro-3-{[3-(hydroxymethyl)-phenyl]carbonyl}phenyl)-propyl]amino}butanamide]: the IC50 under setting [1] was 0.14 µM.

These data come from patent US9145354B2, “Pharmaceutical compounds” (priority 2011, dated 2015).
